For assay [1], the target named is T1, LasB elastase activity in dialysed supernatant from P. aeruginosa strain PA01 (Pseudomonas aeruginosa, UniProt P14756).
T1 construct: uses as source of enzyme dialysed supernatant from P. aeruginosa; endogenous in cells; host or cells: P. aeruginosa strain PA01 culture supernatant, filtered and dialysed
In words: Elastin Congo Red assay to determine % inhibition (Assay 1). It counts as biochemical. Conditions: read-out: Elastin hydrolysis % inhibition @ 50/25 μM inhibitor concentration Assay 1. As to the method:
(§1) Experiments were therefore conducted (1) to measure the potency of inhibition of compounds of the invention against purified Pseudomonas aeruginosa LasB enzyme and also experiments were conducted (2) to measure the ability of compounds of the invention to inhibit LasB-catalysed elastin degradation. The first assay uses a commercial fluorescent synthetic peptide and purified LasB enzyme. The LasB hydrolysis kinetics are measured allowing the determination of the IC50 and Ki of the inhibitors; the second is a more physiological assay using dialysed Pseudomonas aeruginosa supernatant as source of enzyme, plus its natural substrate Elastin. It is an “end point assay” that determines the percentage of LasB inhibition by each compound for one particular time point and inhibitor concentration. Technical details are described below:
The Elastin assay uses as source of enzyme dialysed supernatant from P. aeruginosa and the elastin congo red as substrate. The natural LasB substrate, elastin, is complexed with the congo red dye (Elastin Congo Red, ECR). The elastolysis activity from the culture supernatant will degrade elastin and release the congo red dye into the supernatant. This red dye release can be measured with a spectrophotometer. Some compounds of Formula (I) were assessed using the method of Assay 1 (described below). Other compounds of Formula (I) were assessed using the alternative but equivalent method of Assay 2 (described below).
Method (Assay 1): To determine LasB elastase activity and assess compound inhibition, an overnight culture of P. aeruginosa strain PA01 is diluted thousand-fold in LB medium. This diluted solution is incubated during 19 hours in a shaking incubator. Culture supernatants are recovered by centrifugation and filtrated through a […] filter. These supernatants are dialysed (filtration molecules <20 kDa) into a 50 mM Tris pH 7.4, 2.5 mM CaCl2 solution at 4° C. under agitation for 24 hours. Supernatant dialysed is then mixed volume/volume with the ECR suspension (20 mg/mL of ECR in 100 mM Tris buffer supplemented with 1 mM CaCl2) supplemented with TritonX 100 (final concentration of 0.01%) in presence of different concentrations of compound (routinely 50 and 25 μM). The mixed reaction is then incubated for 24 hours in a 37° shaking incubator. As a negative control, the mixed supernatant is replaced by Tris solution (50 mM Tris pH 7.4, 2.5 mM CaCl2). The reaction supernatant is recovered by centrifugation and the release of congo red is measured by its absorbance at OD520. Percentage inhibition is determined using the following equation: (OD520 value of DMSO SN−OD520 value of LB)−(OD520 value of Compound SN−OD520 value of LB)/(OD520 value of DMSO SN−OD520 value of LB)×100.

The target in assay [2] is T2, purified LasB protein from P. aeruginosa (Pseudomonas aeruginosa, UniProt P14756).
T2 construct: purchased Merck or Charles River Laboratories
T2 sequence (P14756 198-498): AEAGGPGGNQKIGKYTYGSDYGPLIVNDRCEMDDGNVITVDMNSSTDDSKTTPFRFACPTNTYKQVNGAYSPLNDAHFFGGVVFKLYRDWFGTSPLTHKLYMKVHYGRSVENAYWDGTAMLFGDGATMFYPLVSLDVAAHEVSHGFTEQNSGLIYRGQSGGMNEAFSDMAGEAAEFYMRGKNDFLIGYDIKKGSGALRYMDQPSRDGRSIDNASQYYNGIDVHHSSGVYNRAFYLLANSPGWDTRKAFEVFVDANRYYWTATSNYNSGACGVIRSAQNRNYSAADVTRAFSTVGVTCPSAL
In words: Fluorometric assay to determine Ki (Assay 1). It counts as biochemical. Conditions: Ki (μM) Assay 1, purified LasB, substrate Abz-Ala-Gly-Leu-Ala-p-Nitro-Benzyl-Amide 250 μM, Ki calculated from IC50; inhibitor 0.006 to 200 μM. As to the method:
as §1
This assay uses commercially available substrate (Abz-Ala-Gly-Leu-Ala-p-Nitro-Benzyl-Amide (Ex: 340 nm, Em: 415 nm) from Peptide International) and purified LasB protein from P. aeruginosa (provided by Merck or Charles River Laboratories). It is performed to determine LasB elastase activity and assess compound inhibition in 96-well plate format. Some compounds of Formula (I) were assessed using the method of Assay 1 (described below). Other compounds of Formula (I) were assessed using the alternative but equivalent method of Assay 2 (described below).
Method: 10 to 140 ng/ml purified LasB is incubated with 250 μM Abz-Ala-Gly-Leu-Ala-p-Nitro-Benzyl-Amide in 50 mM Tris-HCl pH 7.4, 2.5 mM CaCl2), 0.01% of Triton X100 at 37° C. LasB activity (corresponding to fluorescence emission induced by substrate hydrolysis) is measured over 30 min at 37° C. with a fluorescence plate reader such as the Perkin Elmer Envision or similar. Different range of inhibitor concentrations are routinely assessed depending of inhibitor potency from 0.006 to 200 μM (Assay 1; 2-fold dilutions series) or from 0.0016 to 200 μM (Assay 2; 2-fold dilutions series) in order to determine IC50.
The equation used to calculate the Ki from IC50 is: Ki=IC50/(1+([S]/Km)) where [S]=250 μM and Km=214 μM.

Each structure is given as a SMILES string.

T1 sequence (P14756 198-498): as above

As to `Cc1c(CNC(=O)C2(CC(=O)O)Cc3ccccc3C2)oc2ccccc12` [Example 11, 2-(2-{[2-(3-methyl-1-benzofuran-2-yl)methyl]carbamoyl}-2,3-dihydro-1H-inden-2-yl)acetic acid], in assay [1], the inhibition at 50 µM was in the range of 30 to 60%. For the same compound, the Ki in assay [2] is 0.3 to 2 µM.
The corresponding values for `O=C(O)CC1(C(=O)NCCc2nc3ccccc3[nH]2)Cc2ccccc2C1` [Example 12, 2-[2-[2-(1H-benzimidazol-2-yl)ethylcarbamoyl]indan-2-yl]acetic acid] are 15 to 30% and 2 to 10 µM.
On the same counts, the results for `O=C(O)CC1(C(=O)NCCc2ccc(O)cc2)Cc2ccccc2C1` [Example 13, 2-[2-[2-(4-hydroxyphenyl)ethylcarbamoyl]indan-2-yl]acetic acid] are 30 to 60% and 2 to 10 µM.
The corresponding values for `O=C(O)CC1(C(=O)NCCc2c[nH]c3ccccc23)Cc2ccccc2C1` [Example 14, 2-[2-[2-(1H-indol-3-yl)ethylcarbamoyl]indan-2-yl]acetic acid] are 30 to 60% and < 0.3 µM.
On to `O=C(O)CC1(C(=O)NCc2ccccc2)Cc2ccccc2C1` [Example 16, 2-[2-(benzylcarbamoyl)indan-2-yl]acetic acid], for which, in assay [1], the inhibition at 50 µM was in the range of 30 to 60%. Moreover, the Ki in assay [2] is 2 to 10 µM.
On the same counts, the results for `O=C(O)CC1(C(=O)NCC2COc3ccccc3O2)Cc2ccccc2C1` (centres unmarked) [Example 17, 2-[2-(2,3-dihydro-1,4-benzodioxin-3-ylmethylcarbamoyl)indan-2-yl]acetic acid] are 30 to 60% and 0.3 to 2 µM.
As for `O=C(O)CC1(C(=O)NCc2cc3cc(Br)ccc3o2)Cc2ccccc2C1` [Example 18, 2-[2-[(5-bromobenzofuran-2-yl)methylcarbamoyl]indan-2-yl]acetic acid], the inhibition at 50 µM in assay [1] is > 60%. In addition, the Ki in assay [2] is < 0.3 µM.
For the compound `O=C(O)CC1(C(=O)NCCc2cc3ccccc3o2)Cc2ccccc2C1` [Example 19, 2-[2-[2-(benzofuran-2-yl)ethylcarbamoyl]indan-2-yl]acetic acid], in assay [1], the inhibition at 50 µM fell in the range of 15 to 30%. Further, in assay [2], the Ki is 2 to 10 µM.
On the same counts, the results for `Cc1oc2ccccc2c1CNC(=O)C1(CC(=O)O)Cc2ccccc2C1` [Example 20, 2-[2-[(2-methylbenzofuran-3-yl)methylcarbamoyl]indan-2-yl]acetic acid] are 30 to 60% and 2 to 10 µM.
The corresponding values for `Cn1cnc(CNC(=O)C2(CC(=O)O)Cc3ccccc3C2)c1` [Example 21, 2-[2-[(1-methylimidazol-4-yl)methylcarbamoyl]indan-2-yl]acetic acid] are 30 to 60% and 2 to 10 µM.
For the compound `O=C(O)CC1(C(=O)NCCc2nc3ccccc3s2)Cc2ccccc2C1` [Example 22, 2-[2-[2-(1,3-benzothiazol-2-yl)ethylcarbamoyl]indan-2-yl]acetic acid], the inhibition at 50 µM in assay [1] fell in the range of 15 to 30%. The Ki in assay [2] is 2 to 10 µM.
The corresponding values for `O=C(O)CC1(C(=O)NCc2cc3ccccc3s2)Cc2ccccc2C1` [Example 23, 2-[2-(benzothiophen-2-ylmethylcarbamoyl)indan-2-yl]acetic acid] are 30 to 60% and < 0.3 µM.
On the same counts, the results for `COc1ccc2sc(CNC(=O)C3(CC(=O)O)Cc4ccccc4C3)nc2c1` [Example 24, 2-[2-[(5-methoxy-1,3-benzothiazol-2-yl)methylcarbamoyl]indan-2-yl]acetic acid] are > 60% and < 0.3 µM.
The corresponding values for `O=C(O)CC1(C(=O)NCc2nc3cc(Cl)ccc3s2)Cc2ccccc2C1` [Example 25, 2-[2-[(5-chloro-1,3-benzothiazol-2-yl)methylcarbamoyl]indan-2-yl]acetic acid] are > 60% and < 0.3 µM.
Turning to `O=C(O)CC1(C(=O)NCc2c[nH]c3ccccc23)Cc2ccccc2C1` [Example 26, 2-[2-(1H-indol-3-ylmethylcarbamoyl)indan-2-yl]acetic acid], the inhibition at 50 µM in assay [1] lay within 30 to 60%. Moreover, the inhibition constant Ki in assay [2] is 2 to 10 µM.
In the case of `O=C(O)CC1(C(=O)NCCc2cc3ccccc3[nH]2)Cc2ccccc2C1` [Example 27, 2-[2-[2-(1H-indol-2-yl)ethylcarbamoyl]indan-2-yl]acetic acid], the inhibition at 50 µM in assay [1] lay within 15 to 30%. Moreover, the Ki in assay [2] was 2 to 10 µM.
On the same counts, the results for `O=C(O)CC1(C(=O)NCc2cc3ccccc3[nH]2)Cc2ccccc2C1` [Example 29, 2-[2-(1H-indol-2-ylmethylcarbamoyl)indan-2-yl]acetic acid] are 30 to 60% and < 0.3 µM.
Take `O=C(O)CC1(C(=O)NCCc2cc3ccccc3s2)Cc2ccccc2C1` [Example 30, 2-[2-[2-(benzothiophen-2-yl)ethylcarbamoyl]indan-2-yl]acetic acid]: the inhibition at 50 µM in assay [1] lay in the range of 15 to 30%. The inhibition constant Ki in assay [2] was 2 to 10 µM.
The corresponding values for `COc1ccc2nc(CNC(=O)C3(CC(=O)O)Cc4ccccc4C3)sc2c1` [Example 32, 2-[2-[(6-methoxy-1,3-benzothiazol-2-yl)methylcarbamoyl]indan-2-yl]acetic acid] are > 60% and < 0.3 µM.
Consider `O=C(O)CC1(C(=O)N[C@H](CO)Cc2c[nH]c3ccccc23)Cc2ccccc2C1` [Example 33, (2-{[(2S)-1-hydroxy-3-(1H-indol-3-yl)propan-2-yl]carbamoyl}-1,3-dihydroinden-2-yl)acetic acid], for which the inhibition at 50 µM in assay [1] fell in the range of 30 to 60%. In addition, the inhibition constant (Ki) in assay [2] is 0.3 to 2 µM.
Turning to `CN(C)CC#Cc1ccc2nc(CNC(=O)C3(CC(=O)O)Cc4ccccc4C3)sc2c1` [Example 35, 2-[2-[[6-[3-(dimethylamino)prop-1-ynyl]-1,3-benzothiazol-2-yl]methylcarbamoyl]indan-2-yl]acetic acid], the inhibition at 50 µM in assay [1] is > 60%. The inhibitory constant (Ki) in assay [2] was < 0.3 µM.
The corresponding values for `CN(C)CCCc1ccc2nc(CNC(=O)C3(CC(=O)O)Cc4ccccc4C3)sc2c1` [Example 36, 2-[2-[[6-[3-(dimethylamino)propyl]-1,3-benzothiazol-2-yl]methylcarbamoyl]indan-2-yl]acetic acid] are > 60% and < 0.3 µM.
The corresponding values for `C[N+](C)(C)CCCc1ccc2nc(CNC(=O)C3(CC(=O)O)Cc4ccccc4C3)sc2c1` [Example 37, 3-[2-[[[2-(carboxymethyl)indane-2-carbonyl]amino]methyl]-1,3-benzothiazol-6-yl]propyl-trimethyl-ammonium] are > 60% and 0.3 to 2 µM.
The corresponding values for `NCCCc1ccc2nc(CNC(=O)C3(CC(=O)O)Cc4ccccc4C3)sc2c1` [Example 38, 2-[2-[[6-(3-aminopropyl)-1,3-benzothiazol-2-yl]methylcarbamoyl]indan-2-yl]acetic acid] are > 60% and 0.3 to 2 µM.
Consider `NC/C=C/c1ccc2nc(CNC(=O)C3(CC(=O)O)Cc4ccccc4C3)sc2c1` [Example 39, 2-[2-[[6-[(E)-3-aminoprop-1-enyl]-1,3-benzothiazol-2-yl]methylcarbamoyl]indan-2-yl]acetic acid], for which the inhibition at 50 µM in assay [1] is > 60%. Moreover, in assay [2], the Ki was < 0.3 µM.

For orientation: Ki means a measure of affinity in units of concentration, obtained from inhibition or displacement.

(Values after US11000511B2, “Chemical compounds as antibiotics” (priority 2017, dated 2021).)
